In the NIST ThermoML archive (doi:10.1021/acs.jced.6b00210):
± gives the expanded uncertainty stated by the source.

Assays:
[1] = 100 kPa, Liquid; for viscosity: Concentric cylinders viscometry; for mass density: Vibrating tube method
[2] = xn = mol fraction of the nth substance listed; conditions: 100 kPa, Liquid, x2 = 0; for viscosity: Concentric cylinders viscometry; for mass density: Vibrating tube method

| SMILES | viscosity ([1]; 293.15 K) | mass density ([1]; 293.15 K) | viscosity ([1]; 298.15 K) | mass density ([1]; 298.15 K) | viscosity ([1]; 303.15 K) | mass density ([1]; 303.15 K) | viscosity ([1]; 308.15 K) | mass density ([1]; 308.15 K) | viscosity ([1]; 313.15 K) | mass density ([1]; 313.15 K) | viscosity ([1]; 318.15 K) | mass density ([1]; 318.15 K) | viscosity ([1]; 323.15 K) | mass density ([1]; 323.15 K) | viscosity ([2]; 293.15 K) | mass density ([2]; 293.15 K) | viscosity ([2]; 298.15 K) | mass density ([2]; 298.15 K) | viscosity ([2]; 303.15 K) | mass density ([2]; 303.15 K) | further results |
| --- | --- | --- | --- | --- | --- | --- | --- | --- | --- | --- | --- | --- | --- | --- | --- | --- | --- | --- | --- | --- | --- |
| CC(C)O [propan-2-ol] | 2.42 ± 0.29 mPa·s | 785.4 ± 0.2 kg/m3 | 2.08 ± 0.25 mPa·s | 781.1 ± 0.2 kg/m3 | 1.8 ± 0.22 mPa·s | 776.8 ± 0.2 kg/m3 | 1.56 ± 0.19 mPa·s | 772.4 ± 0.2 kg/m3 | 1.36 ± 0.16 mPa·s | 768 ± 0.2 kg/m3 | 1.19 ± 0.14 mPa·s | 763.4 ± 0.2 kg/m3 | 1.05 ± 0.13 mPa·s | 758.8 ± 0.2 kg/m3 | – | – | – | – | – | – | – |
| CCCC(C)O (stereo not drawn) [pentan-2-ol] | 3.97 ± 0.48 mPa·s | 809.3 ± 0.2 kg/m3 | 3.44 ± 0.41 mPa·s | 805.3 ± 0.2 kg/m3 | 2.94 ± 0.35 mPa·s | 801.2 ± 0.2 kg/m3 | 2.48 ± 0.3 mPa·s | 797 ± 0.2 kg/m3 | 2.04 ± 0.25 mPa·s | 792.7 ± 0.2 kg/m3 | 1.65 ± 0.2 mPa·s | 788.4 ± 0.2 kg/m3 | 1.29 ± 0.16 mPa·s | 784 ± 0.2 kg/m3 | – | – | – | – | – | – | – |
| CCC(C)O (stereo not drawn) [butan-2-ol] | 3.67 ± 0.44 mPa·s | 806.7 ± 0.2 kg/m3 | 3.04 ± 0.37 mPa·s | 802.7 ± 0.2 kg/m3 | 2.54 ± 0.31 mPa·s | 798.4 ± 0.2 kg/m3 | 2.13 ± 0.26 mPa·s | 794.1 ± 0.2 kg/m3 | 1.8 ± 0.22 mPa·s | 789.8 ± 0.2 kg/m3 | 1.54 ± 0.19 mPa·s | 785.2 ± 0.2 kg/m3 | 1.33 ± 0.16 mPa·s | 780.6 ± 0.2 kg/m3 | – | – | – | – | – | – | – |
| CCCC(C)O (stereo not drawn) [pentan-2-ol] + Nc1ccccc1 | – | – | – | – | – | – | – | – | – | – | – | – | – | – | 3.97 ± 0.48 mPa·s | 809.3 ± 0.2 kg/m3 | 3.44 ± 0.41 mPa·s | 805.3 ± 0.2 kg/m3 | 2.94 ± 0.35 mPa·s | 801.2 ± 0.2 kg/m3 | viscosity ([2]; 308.15 K): 2.48 ± 0.3 mPa·s; mass density ([2]; 308.15 K): 797 ± 0.2 kg/m3; viscosity ([2]; 313.15 K): 2.04 ± 0.25 mPa·s; mass density ([2]; 313.15 K): 792.7 ± 0.2 kg/m3; viscosity ([2]; 318.15 K): 1.65 ± 0.2 mPa·s; mass density ([2]; 318.15 K): 788.4 ± 0.2 kg/m3; viscosity ([2]; 323.15 K): 1.29 ± 0.16 mPa·s; mass density ([2]; 323.15 K): 784 ± 0.2 kg/m3 |
| Nc1ccccc1 [aniline] | 4.37 ± 0.53 mPa·s | 1021.7 ± 0.3 kg/m3 | 3.8 ± 0.46 mPa·s | 1017.4 ± 0.3 kg/m3 | 3.13 ± 0.38 mPa·s | 1013.2 ± 0.3 kg/m3 | 2.75 ± 0.33 mPa·s | 1009 ± 0.3 kg/m3 | 2.43 ± 0.29 mPa·s | 1004.7 ± 0.3 kg/m3 | 2.14 ± 0.26 mPa·s | 1000.4 ± 0.3 kg/m3 | 1.96 ± 0.24 mPa·s | 995.5 ± 0.3 kg/m3 | – | – | – | – | – | – | – |
| CCC(C)O (stereo not drawn) [butan-2-ol] + Nc1ccccc1 | – | – | – | – | – | – | – | – | – | – | – | – | – | – | 3.67 ± 0.44 mPa·s | 806.7 ± 0.2 kg/m3 | 3.04 ± 0.37 mPa·s | 802.7 ± 0.2 kg/m3 | 2.54 ± 0.31 mPa·s | 798.4 ± 0.2 kg/m3 | viscosity ([2]; 308.15 K): 2.13 ± 0.26 mPa·s; mass density ([2]; 308.15 K): 794.1 ± 0.2 kg/m3; viscosity ([2]; 313.15 K): 1.8 ± 0.22 mPa·s; mass density ([2]; 313.15 K): 789.8 ± 0.2 kg/m3; viscosity ([2]; 318.15 K): 1.54 ± 0.19 mPa·s; mass density ([2]; 318.15 K): 785.2 ± 0.2 kg/m3; viscosity ([2]; 323.15 K): 1.33 ± 0.16 mPa·s; mass density ([2]; 323.15 K): 780.6 ± 0.2 kg/m3 |
| CC(C)O [propan-2-ol] + Nc1ccccc1 | – | – | – | – | – | – | – | – | – | – | – | – | – | – | 2.42 ± 0.29 mPa·s | 785.4 ± 0.2 kg/m3 | 2.08 ± 0.25 mPa·s | 781.1 ± 0.2 kg/m3 | 1.8 ± 0.22 mPa·s | 776.8 ± 0.2 kg/m3 | viscosity ([2]; 308.15 K): 1.56 ± 0.19 mPa·s; mass density ([2]; 308.15 K): 772.4 ± 0.2 kg/m3; viscosity ([2]; 313.15 K): 1.36 ± 0.16 mPa·s; mass density ([2]; 313.15 K): 768 ± 0.2 kg/m3; viscosity ([2]; 318.15 K): 1.19 ± 0.14 mPa·s; mass density ([2]; 318.15 K): 763.4 ± 0.2 kg/m3; viscosity ([2]; 323.15 K): 1.05 ± 0.13 mPa·s; mass density ([2]; 323.15 K): 758.8 ± 0.2 kg/m3 |
